According to patent US7060686B2, “Anti-inflammatory compounds derived from Pseudopterogorgia elisabethae” (The Regents of the University of California, priority 2000, dated 2006):

How the values were obtained:
[1] = system: phorbol 12-myristate 13-acetate (PMA) induced ear edema; test: Mouse ear anti-inflammatory assay; type: in vivo; settings: for inhibition in vivo at 25 µg/ear: Mus musculus, 200 min; for inhibition in vivo at 25 µg/ear / Edema (mg ± sem) / % Inhibition: topical, 200 minutes; for inhibition in vivo at 25 µg/ear / % Inhibition: 25 μg/ear with PMA, decrease in edema relative to PMA control group; for Relative Potency, Pseudopterosin A: potency estimate relative to Pseudopterosin A (historical ED50 15 μg/ear); for Relative Potency, Pseudopterosin E: potency estimate relative to Pseudopterosin E (historical ED50 40 μg/ear); for Edema (mg ± sem): 25 μg/ear test compound with 2 μg/ear PMA, left minus right ear bore weight, N=5
Method: A. Mouse Ear Anti-Inflammatory Assay Each compound was topically applied in acetone to the inside pinnae of the ear of a mouse in a solution containing the edema-causing irritant, phorbol 12-myristate 13-acetate (PMA). 2 μg per ear of PMA alone or 25 μg per ear of test compound in combination with PMA was applied to the left ear of each mouse and acetone (control) was applied to each right ear of each mouse. There were 5 mice per treatment group. After incubating 200 minutes, the mice were sacrificed, the ears were removed, and bores were taken and weighed. Edema (inflammation) was measured by subtracting the weight of the right ear from the weight of the left ear. Results were recorded as % decrease (inhibition) or % increase (potentiation) in edema relative to the PMA control group edema.

[2] = system: phorbol 12-myristate 13-acetate (PMA) induced ear edema; settings: Jacobs' historical standards; cited from earlier work

Row | SMILES | inhibition in vivo at 25 µg/ear [1] [%] | Relative Potency, Pseudopterosin A [1] [%] | Relative Potency, Pseudopterosin E [1] [%] | Edema (mg ± sem) [1] [mg] | % Inhibition [1] | ED50 [2] [μg/ear]
1 | CC(=O)OC1C(Oc2c(C)c3c4c(c2O)[C@@H](C)CC[C@@H]4[C@@H](C)CC3C=C(C)C)OCC(O)C1O (stereo partly shown) [Compound 1] | 68 | 118 | 324 | 2.1 ± 0.5 |  | 
2 | CC(=O)OC1C(O)COC(Oc2c(C)c3c4c(c2O)[C@@H](C)CC[C@@H]4[C@@H](C)CC3C=C(C)C)C1O (stereo partly shown) [Compound 2] | 88 |  |  | 0.8 ± 0.2 | highest percent inhibition | 
3 | CC(=O)OC1COC(Oc2c(C)c3c4c(c2O)[C@@H](C)CC[C@@H]4[C@@H](C)CC3C=C(C)C)C(O)C1O (stereo partly shown) [Compound 3] | 69 | 123 | 337 | 0.9 ± 0.2 |  | 
4 | CC(=O)OC1C(Oc2c(C)cc3c(c2O)[C@@H](C)CC[C@@H]3[C@@H](C)CCC=C(C)C)OC(C)C(O)C1O (stereo partly shown) [Compound 4] | 88 |  |  | 0.8 ± 0.2 | highest percent inhibition | 
5 | CC(=O)OC1C(O)C(C)OC(Oc2c(C)cc3c(c2O)[C@@H](C)CC[C@@H]3[C@@H](C)CCC=C(C)C)C1O (stereo partly shown) [Compound 5] | 65 | 103 | 288 | 2.4 ± 0.6 |  | 
6 | CC(=O)OC1C(C)OC(Oc2c(C)cc3c(c2O)[C@@H](C)CC[C@@H]3[C@@H](C)CCC=C(C)C)C(O)C1O (stereo partly shown) [Compound 6] | 74 | 148 | 410 | 1.8 ± 0.3 |  | 
7 | CC(C)=CCC[C@H](C)[C@H]1CC[C@H](C)C2=C1C(=O)C(C)=C(O)C2=O [Compound 7, elisabethadione] | 83 |  |  | 1.2 ± 0.1 |  | 
8 | CC(C)=C[C@H]1C[C@H](C)[C@H]2CC[C@H](C)C3=C2C1(O)C(C)=C(O)C3=O (stereo partly shown) [Compound 8, elisabethadiol] | 9 |  |  | 6.2 ± 0.6 |  | 
9 | CC(C)=C[C@H]1C[C@H](C)[C@H]2CC[C@H](C)c3c(O[C@@H]4OC[C@@H](O)[C@H](O)[C@H]4O)c(O)c(C)c1c32 [Pseudopterosin A] |  |  |  |  |  | 15
10 | CC(C)=C[C@H]1C[C@H](C)[C@H]2CC[C@H](C)c3c(O)c(O[C@@H]4O[C@@H](C)[C@@H](O)[C@@H](O)[C@@H]4O)c(C)c1c32 [Pseudopterosin E] |  |  |  |  |  | 40
